Assay: Maximum plasma concentration of octreotide in rats after endoscopic administration
Details: same administered octreotide level (5 mg)
Description: A control test was conducted on seven control rats. A 5 mg solution of octreotide was endoscopically administered to the control rats, and the resulting maximum plasma concentrations of octreotide in the control rats were measured.
Octreotide was administered to three test rats using techniques that were in accordance with embodiments of the present invention. A drug layer of 5 mg of octreotide was dried onto the outer layer of each of three capsules, and the capsules were endoscopically placed in the small intestine of the three test rats. The resulting maximum plasma concentrations of octreotide in the test rats were measured.

C[C@@H](O)[C@@H]1NC(=O)[C@H](CCCCN)NC(=O)[C@@H](Cc2c[nH]c3ccccc23)NC(=O)[C@H](Cc2ccccc2)NC(=O)[C@@H](NC(=O)[C@H](N)Cc2ccccc2)CSSC[C@@H](C(=O)N[C@H](CO)[C@@H](C)O)NC1=O [octreotide]
resultant blood concentration of octreotide, test group (capsule surface) versus control group (solution): significantly higher

— patent US8287902B2, “Enhanced-diffusion capsule” (Rainbow Medical Ltd., priority 2008, dated 2012)
